Data reported in patent US20240352022A1, “GROUP OF IMB-C5 SERIES COMPOUNDS HAVING ANTI-CORONAVIRUS ACTIVITY AND APPLICATION THEREOF” (priority 2021, published 2024).

Experiments:
[1] = in vitro; details: human
[2] = system: HCoV-229E; experiment: anti-HCoV-229E activity in Huh7.5 cells by cytopathic effect (CPE) assay; format: cell-based, Human coronavirus HCoV-229E; details: Human coronavirus 229E, HCoV-229E 100 TCID50 in Huh7.5 cells, about 48 h
[3] = system: HCoV-229E; experiment: anti-HCoV-229E activity in Huh7 cells by cytopathic effect (CPE) assay; format: cell-based, Human coronavirus HCoV-229E; details: Human coronavirus 229E, Huh-7, HCoV-229E 100 TCID50 in Huh7 cells, about 48 h
[4] = in vitro; details: human; remark: listed apart in the source

COc1ccc(Cn2c(NCCO)nc3c2c(=O)n(C)c(=O)n3C)cc1 [IMB-88]
CC50 [1]: > 278 µM | EC50 [2]: 23.5 µM | EC50 [3]: 16.5 µM | CC50 [4]: > 278 µM

Cn1c(=O)c2c(nc(NCCO)n2Cc2ccc(OC(F)(F)F)cc2)n(C)c1=O [IMB-2-3, 8-((2-hydroxyethyl)amino)-1,3-dimethyl-7-(4-(trifluoromethoxy)benzyl)-3,7-dihydro-1H-purine-2,6-dione]
CC50 [1]: > 242 µM | EC50 [2]: 4.79 µM | EC50 [3]: 11.4 µM | CC50 [4]: > 242 µM

Cn1c(=O)c2c(nc(NCCO)n2Cc2ccc(F)cc2F)n(C)c1=O [IMB-83, 7-(2,4-difluorobenzyl)-8-((2-hydroxyethyl)amino)-1,3-dimethyl-3,7-dihydro-1H-purine-2,6-dione]
EC50 [3]: 3.15 µM | CC50 [4]: > 200 µM

COc1cccc(CCn2c(NCCO)nc3c2c(=O)n(C)c(=O)n3C)c1 [IMB-4-13, 8-((2-hydroxyethyl)amino)-7-(3-methoxyphenethyl)-1,3-dimethyl-3,7-dihydro-1H-purine-2,6-dione]
EC50 [3]: 15.4 µM | CC50 [4]: > 200 µM

COc1cccc(Cn2c(N[C@@H](C)CO)nc3c2c(=O)n(C)c(=O)n3C)c1 [IMB-ZH-2, (S)-8-((1-hydroxypropan-2-yl)amino)-7-(3-methoxybenzyl)-1,3-dimethyl-3,7-dihydro-1H-purine-2,6-dione]
CC50 [1]: > 134 µM | EC50 [2]: 82.9 µM | EC50 [3]: 44.7 µM | CC50 [4]: > 134 µM

COc1cccc(Cn2c(N3CCN(c4ccc(F)cc4)CC3)nc3c2c(=O)n(C)c(=O)n3C)c1 [IMB-2-31, 8-(4-(4-fluorophenyl)piperazin-1-yl)-7-(3-methoxybenzyl)-1,3-dimethyl-3,7-dihydro-1H-purine-2,6-dione]
EC50 [3]: 38.5 µM | CC50 [4]: > 200 µM

COc1cccc(Cn2c(NCCO)nc3c2c(=O)n(Cc2ccc(F)cc2)c(=O)n3C)c1 [IMB-3-13, 1-(4-fluorobenzyl)-8-((2-hydroxyethyl)amino)-7-(3-methoxybenzyl)-3-methyl-3,7-dihydro-1H-purine-2,6-dione]
EC50 [3]: 17.2 µM | CC50 [4]: 46.2 µM

C#CCn1c(=O)c2c(nc(NCCO)n2Cc2cccc(OC)c2)n(C)c1=O [IMB-3-72, 8-((2-hydroxyethyl)amino)-7-(3-methoxybenzyl)-3-methyl-1-(prop-2-yn-1-yl)-3,7-dihydro-1H-purine-2,6-dione]
EC50 [3]: 115 µM | CC50 [4]: > 200 µM

C#CCCn1c(=O)c2c(nc(NCCO)n2Cc2cccc(OC)c2)n(C)c1=O [IMB-3-45, 1-(but-3-yn-1-yl)-8-((2-hydroxyethyl)amino)-7-(3-methoxybenzyl)-3-methyl-3,7-dihydro-1H-purine-2,6-dione]
EC50 [3]: 66.7 µM | CC50 [4]: > 200 µM

COc1cccc(Cn2c(NCC(N)=O)nc3c2c(=O)n(C)c(=O)n3C)c1 [IMB-ZHC-15, ((7-(3-methoxybenzyl)-1,3-dimethyl-2,6-dioxo-2,3,6,7-tetrahydro-1H-purin-8-yl)amino)acetamide]
CC50 [1]: > 134 µM | EC50 [2]: 58.9 µM | EC50 [3]: 44.8 µM | CC50 [4]: > 134 µM

Cn1c(=O)c2c(nc(NCCO)n2Cc2cccc(Cl)c2F)n(C)c1=O [IMB-ZHB-4x, 7-(3-chloro-2-fluorobenzyl)-8-((2-hydroxyethyl)amino)-1,3-dimethyl-3,7-dihydro-1H-purine-2,6-dione]
CC50 [1]: 91 µM | EC50 [2]: 8.42 µM | EC50 [3]: 3.78 µM | CC50 [4]: 91 µM

COc1cccc(Cn2c(NCCO)nc3c2c(=O)n(C)c(=O)n3Cc2ccccc2)c1 [IMB-3-81, benzyl-8-((2-hydroxyethyl)amino)-7-(3-methoxybenzyl)-1-methyl-3,7-dihydro-1H-purine-2,6-dione]
EC50 [3]: 96.2 µM | CC50 [4]: > 200 µM

Cn1c(=O)c2c(nc(NCCO)n2Cc2ccccc2Br)n(C)c1=O [IMB-2-6, 7-(2-bromobenzyl)-8-((2-hydroxyethyl)amino)-1,3-dimethyl-3,7-dihydro-1H-purine-2,6-dione]
EC50 [3]: 12.8 µM | CC50 [4]: > 200 µM

CCOC(=O)c1cccc(Cn2c(NCCO)nc3c2c(=O)n(C)c(=O)n3C)c1 [IMB-4-6, ethyl3-((8-((2-hydroxyethyl)amino)-1,3-dimethyl-2,6-dioxo-1,2,3,6-tetrahydro-7H-purin-7-yl)methyl)benzoate]
EC50 [3]: 2.47 µM | CC50 [4]: 200 µM

Cn1c(=O)c2c(nc(NCCO)n2Cc2cccc(Br)c2)n(C)c1=O [IMB-81, 7-(3-bromobenzyl)-8-((2-hydroxyethyl)amino)-1,3-dimethyl-3,7-dihydro-1H-purine-2,6-dione]
EC50 [3]: 2.47 µM | CC50 [4]: 124 µM

COc1cccc(Cn2c(-n3ccnc3)nc3c2c(=O)n(C)c(=O)n3C)c1 [IMB-2-26, 8-(1H-imidazol-1-yl)-7-(3-methoxybenzyl)-1,3-dimethyl-3,7-dihydro-1H-purine-2,6-dione]
EC50 [3]: 38.5 µM | CC50 [4]: > 200 µM

Cn1c(=O)c2c(nc(NCCO)n2Cc2cccc(F)c2)n(C)c1=O [IMB-80, 7-(3-fluorobenzyl)-8-((2-hydroxyethyl)amino)-1,3-dimethyl-3,7-dihydro-1H-purine-2,6-dione]
CC50 [1]: > 288 µM | EC50 [2]: 14 µM | EC50 [3]: 10.7 µM | CC50 [4]: > 288 µM

COc1ccc(Cn2c(=O)c3c(nc(NCCO)n3Cc3cccc(OC)c3)n(C)c2=O)cc1 [IMB-3-15, 8-((2-hydroxyethyl)amino)-7-(3-methoxybenzyl)-1-(4-methoxybenzyl)-3-methyl-3,7-dihydro-1H-purine-2,6-dione]
EC50 [3]: 17.2 µM | CC50 [4]: > 200 µM

CCn1c(=O)c2c(nc(NCCO)n2Cc2cccc(OC)c2)n(C)c1=O [IMB-3-46, ethyl-8-((2-hydroxyethyl)amino)-7-(3-methoxybenzyl)-3-methyl-3,7-dihydro-1H-purine-2,6-dione]
EC50 [3]: 155 µM | CC50 [4]: > 200 µM

COc1cccc(Cn2c(N[C@@H](CO)C(C)C)nc3c2c(=O)n(C)c(=O)n3C)c1 [IMB-ZH-12, (R)-8-((1-hydroxy-3-methylbutan-2-yl)amino)-7-(3-methoxybenzyl)-1,3-dimethyl-3,7-dihydro-1H-purine-2,6-dione]
CC50 [1]: > 125 µM | EC50 [2]: 59.9 µM | EC50 [3]: 59.9 µM | CC50 [4]: > 125 µM

COc1cccc(Cn2c(NCCO)nc3c2c(=O)n(CC2CCOCC2)c(=O)n3C)c1 [IMB-3-6, 8-((2-hydroxyethyl)amino)-7-(3-methoxybenzyl)-3-methyl-1-((tetrahydro-2H-pyran-4-yl)methyl)-3,7-dihydro-1H-purine-2,6-dione]
CC50 [4]: > 200 µM

COc1cccc(Cn2c(NC[C@@H](C)O)nc3c2c(=O)n(C)c(=O)n3C)c1 [IMB-ZHC-6, (R)-8-((2-hydroxypropyl)amino)-7-(3-methoxybenzyl)-1,3-dimethyl-3,7-dihydro-1H-purine-2,6-dione]
CC50 [1]: > 134 µM | EC50 [2]: 58.8 µM | EC50 [3]: 12.6 µM | CC50 [4]: > 134 µM

COCCNc1nc2c(c(=O)n(C)c(=O)n2C)n1Cc1cccc(OC)c1 [IMB-ZH-10, 7-(3-methoxybenzyl)-8-((2-methoxyethyl)amino)-1,3-dimethyl-3,7-dihydro-1H-purine-2,6-dione]
CC50 [1]: > 134 µM | EC50 [2]: 19 µM | EC50 [3]: 8.6 µM | CC50 [4]: > 134 µM

COc1cccc(Cn2c(NCCO)nc3c2c(=O)n(CCCNC(=O)OC(C)(C)C)c(=O)n3C)c1 [IMB-3-58, tert-butyl(3-(8-((2-hydroxyethyl)amino)-7-(3-methoxybenzyl)-3-methyl-2,6-dioxo-2,3,6,7-tetrahydro-1H-purin-1-yl)propyl)carbamate]
EC50 [3]: 66.7 µM | CC50 [4]: > 200 µM

COc1cccc(Cn2c(NCCO)nc3c2c(=O)n(Cc2ccncc2)c(=O)n3C)c1 [IMB-3-16, 8-((2-hydroxyethyl)amino)-7-(3-methoxybenzyl)-3-methyl-1-(pyridin-4-ylmethyl)-3,7-dihydro-1H-purine-2,6-dione]
EC50 [3]: 22.2 µM | CC50 [4]: 115 µM

CCn1c(=O)c2c(nc(Br)n2Cc2cccc(OC)c2)n(C)c1=O [IMB-3-30, 8-bromo-1-ethyl-7-(3-methoxybenzyl)-3-methyl-3,7-dihydro-1H-purine-2,6-dione]
EC50 [3]: 4.28 µM | CC50 [4]: 155 µM

C=CCn1c(=O)c2c(nc(NCCO)n2Cc2cccc(OC)c2)n(C)c1=O [IMB-3-71, allyl-8-((2-hydroxyethyl)amino)-7-(3-methoxybenzyl)-3-methyl-3,7-dihydro-1H-purine-2,6-dione]
EC50 [3]: 38.5 µM | CC50 [4]: 115 µM

COc1cccc(Cn2c(NCCO)nc3c2c(=O)n(CCNC(=O)OC(C)(C)C)c(=O)n3C)c1 [IMB-3-57, tert-butyl(2-(8-((2-hydroxyethyl)amino)-7-(3-methoxybenzyl)-3-methyl-2,6-dioxo-2,3,6,7-tetrahydro-1H-purin-1-yl)ethyl)carbamate]
EC50 [3]: 66.7 µM | CC50 [4]: > 200 µM

Cn1c(=O)c2c(nc(NCCO)n2Cc2ccsc2)n(C)c1=O [IMB-4-12, 8-((2-hydroxyethyl)amino)-1,3-dimethyl-7-(thiophen-3-ylmethyl)-3,7-dihydro-1H-purine-2,6-dione]
EC50 [3]: 3.99 µM | CC50 [4]: > 200 µM

Cn1c(=O)c2c(nc(NCCO)n2Cc2cccc([N+](=O)[O-])c2)n(C)c1=O [IMB-79]
EC50 [3]: 17.2 µM | CC50 [4]: > 200 µM

Cn1c(=O)c2c(nc(NCCO)n2Cc2ccc(F)cc2)n(C)c1=O [IMB-2-2, 7-(4-fluorobenzyl)-8-((2-hydroxyethyl)amino)-1,3-dimethyl-3,7-dihydro-1H-purine-2,6-dione]
EC50 [3]: 3.15 µM | CC50 [4]: > 200 µM

COC(=O)c1ccc2c(ccn2-c2nc3c(c(=O)n(C)c(=O)n3C)n2Cc2cccc(OC)c2)c1 [IMB-2-32, Methyl-1-(7-(3-methoxybenzyl)-1,3-dimethyl-2,6-dioxo-2,3,6,7-tetrahydro-1H-purin-8-yl)-1H-indole-5-carboxylate]
EC50 [3]: 5.75 µM | CC50 [4]: 51.7 µM

NC(=O)c1ncn([C@@H]2O[C@H](CO)[C@@H](O)[C@H]2O)n1 [RBV, Ribavirin, reference compound]
EC50 [2]: 16.7 µM | EC50 [3]: 26.2 µM

CCCn1c(=O)c2c(nc(NCCO)n2Cc2cccc(OC)c2)n(C)c1=O [IMB-3-47, 8-((2-hydroxyethyl)amino)-7-(3-methoxybenzyl)-3-methyl-1-propyl-3,7-dihydro-1H-purine-2,6-dione]
EC50 [3]: 85.9 µM | CC50 [4]: > 200 µM
